Results published in ChEMBL document CHEMBL2331417, “Kinetic and anion inhibition studies of a β-carbonic anhydrase (FbiCA 1) from the C4 plant Flaveria bidentis” (Bioorg Med Chem Lett, 2013).

Experiments:
[1] = Inhibition of Flaveria bidentis beta-carbonic anhydrase-1 preincubated for 15 mins by stopped flow CO2 hydration assay
[2] = Inhibition of Helicobacter pylori beta-carbonic anhydrase preincubated for 15 mins by stopped flow CO2 hydration assay

Structure (SMILES)	Ki [1] [µM]	Ki [2] [µM]
CCN(CC)C(=S)S [DITIOCARB SODIUM]	8	7.4
O=[As](O)(O)c1ccccc1 [PHENYLARSONIC ACID]	6	–
OB(O)c1ccccc1 [PHENYLBORONIC ACID]	8	73
[N-]=[N+]=[N-] [SODIUM AZIDE]	460	800
O=C([O-])O.[Na+] [SODIUM BICARBONATE]	660	–
O=S([O-])O.[Na+] [SODIUM BISULFITE]	55300	630
[Br-].[Na+] [SODIUM BROMIDE]	670	380
O=C([O-])[O-].[Na+].[Na+] [SODIUM CARBONATE]	840	420
S=C(S)S [SODIUM CARBONOTRITHIOATE]	60	210
[Cl-].[Na+] [SODIUM CHLORIDE]	740	560
[F-].[Na+] [SODIUM FLUORIDE]	710	670
S [SODIUM HYDROSULFIDE]	860	580
O=S(=O)(O)ONOS(=O)(=O)O [SODIUM IMINODISULFATE]	50900	700
[I-].[Na+] [SODIUM IODIDE]	710	630
N=C=[Se] [SODIUM ISOSELENOCYANATE]	880	970
N=C=S [SODIUM ISOTHIOCYANATE]	830	680
O=[N+]([O-])[O-].[Na+] [SODIUM NITRATE]	780	780
O=NO [SODIUM NITRITE]	570	670
[O-][Cl+3]([O-])([O-])O [SODIUM PERCHLORATE]	> 200000	6500
O=S(=O)(O)OOS(=O)(=O)O [SODIUM PERSULFATE]	870	930
O=P(O)(O)OP(=O)(O)O [SODIUM PYROPHOSPHATE]	830	750
O=[Se](=O)(O)O [SODIUM SELENATE]	24500	650
O=S(=O)([O-])[O-].[Na+].[Na+] [SODIUM SULFATE ANHYDROUS]	620	570
O=[Te](=O)(O)O [SODIUM TELLURATE]	900	450
O=BOB(O)OB(O)OB=O [SODIUM TETRABORATE]	860	680
F[B-](F)(F)F.[Na+] [SODIUM TETRAFLUOROBORATE]	> 200000	> 200000
NS(=O)(=O)O [SULFAMATE]	5	94
NS(N)(=O)=O [SULFAMIDE]	4	72
